What was measured:
human GPR142 = molecular target: T1, human GPR142 (Homo sapiens, UniProt Q7Z601); assay: GPR142 agonist effect as measured by IP-1 assay (HTRF), human GPR142; format: cell-based; conditions: HEK293 cells expressing human GPR142, IP-1, Mean±SEM, n=9
T1 construct: expressed in transfected cells; host or cells: HEK293 (G418-selected)
T1 sequence (Q7Z601 1-462): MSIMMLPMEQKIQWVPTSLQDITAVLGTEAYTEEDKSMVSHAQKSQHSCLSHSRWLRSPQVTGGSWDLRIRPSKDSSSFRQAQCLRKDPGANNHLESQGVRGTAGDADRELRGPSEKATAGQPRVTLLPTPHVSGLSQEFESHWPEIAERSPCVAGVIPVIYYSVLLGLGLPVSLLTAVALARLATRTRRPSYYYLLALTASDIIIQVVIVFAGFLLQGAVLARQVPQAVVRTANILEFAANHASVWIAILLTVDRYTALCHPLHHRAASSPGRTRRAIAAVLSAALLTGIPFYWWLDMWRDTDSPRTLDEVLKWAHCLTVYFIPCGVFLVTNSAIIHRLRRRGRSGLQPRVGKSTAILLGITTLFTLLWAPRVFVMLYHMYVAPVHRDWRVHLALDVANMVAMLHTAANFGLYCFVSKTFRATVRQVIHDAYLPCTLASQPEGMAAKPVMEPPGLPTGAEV
Description: (§1) The purpose of this assay is to detect GPR142 agonist effect.
(§2) HEK293 cells expressing human GPR142 or mouse GPR142 are maintained in Dulbecco's modified Eagle's medium supplemented with 10% FBS and 800 μg/ml G418 (Geneticin®) at 37° C. and 5% CO2. The cells are plated in 384 well plates at 5000 cells per well and allowed 18 hours for attachment. After addition of compounds at varying concentrations ranging from 30 μM to 1 nM, cells are incubated for 1 hour. IP-1 measurements are performed using an IP-One HTRF® assay kit (Cisbio) according to manufacturer's protocol using assay buffer containing 1×HBSS (+Ca, +Mg), 0.1% BSA, 50 mM LiCl and 20 mM HEPES, pH 7.2. The reaction is stopped by addition of IP1-d2 (IP-1 coupled to an organic HTRF acceptor) followed by cryptate solution (http://www.htrf.com/usa/htrf-chemistry) and the plates are incubated at 25° C. for 1 hour. Fluorescence is read in an Envision instrument at 665 nm and 620 nm wavelength. The ratio of 665 nm/620 nm is calculated and converted to IP-1 levels using an IP-1 standard curve. The data is fit to a 4 parameter-fit logistics to determine EC50 values.

mouse GPR142 = molecular target: T2, mouse GPR142 (Mus musculus, UniProt Q7TQN9); assay: GPR142 agonist effect as measured by IP-1 assay (HTRF), mouse GPR142; format: cell-based; conditions: HEK293 cells expressing mouse GPR142, IP-1; Mean±SEM, n=5; read-out: EC50 against mouse GPR142 receptor
T2 construct: expressed in transfected cells; host or cells: HEK293 (G418-selected)
T2 sequence (Q7TQN9 1-365): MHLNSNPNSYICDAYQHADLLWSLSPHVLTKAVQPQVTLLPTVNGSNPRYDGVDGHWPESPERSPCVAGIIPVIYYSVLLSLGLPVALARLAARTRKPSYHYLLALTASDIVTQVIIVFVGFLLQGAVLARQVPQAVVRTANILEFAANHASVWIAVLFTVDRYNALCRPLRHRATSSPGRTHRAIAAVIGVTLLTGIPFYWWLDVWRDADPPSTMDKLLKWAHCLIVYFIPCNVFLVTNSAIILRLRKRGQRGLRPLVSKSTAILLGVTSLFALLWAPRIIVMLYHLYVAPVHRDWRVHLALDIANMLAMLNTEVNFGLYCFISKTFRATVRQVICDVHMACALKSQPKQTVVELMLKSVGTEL
Description: as §1, §2

GPR142 = molecular target: T3, GPR142 (Mus musculus, UniProt Q7TQN9); assay: Intraperitoneal glucose tolerance test (IPGTT); format: in vivo; conditions: lean C57BL/6 mice, oral dosing 30 min before glucose challenge
T3 construct: from tissue; host or cells: whole animal, male C57BL/6 mice
T3 sequence (Q7TQN9 1-365): T2 sequence (Q7TQN9 1-365)
Description: IPGTT assay is used to examine the ability of exemplified compounds to activate GPR142 in vivo resulting in anti-diabetic efficacy, i.e. reduction in plasma glucose levels. Male C57BL/6 mice (8-10 weeks of age) are fed normal rodent chow diet and water ad libitum. On the night before the study, animals are fasted overnight in clean cages. On the morning of the study, animals are dosed orally with vehicle or compound at the indicated doses 30 minutes prior to the glucose challenge (2 g/kg) by intraperitoneal injection. Blood glucose levels are determined from tail bleeds taken immediately prior to compound dosing (−30 min) and 0, 15, 30, and 60 min after glucose challenge using handheld glucometers. Plasma is isolated from tail bleeds taken at 7 minutes after glucose challenge and used to determine insulin levels by the Rat/Mouse Insulin Elisa kit (Millipore) or MA6000 Mouse/Rat Insulin Kit (MSD). The blood glucose profile from t=0 to t=60 min is used to calculate an area under the curve (AUC) for each treatment. Percent lowering in glucose AUC is calculated for each treatment group with respect to the AUC of vehicle group. Compounds with a reduction in glucose AUC (P<0.05) is considered positive in the assay.

- efficacy against human GPR142 receptor (human GPR142): 105%
- EC50 (human GPR142; read-out: EC50 against human GPR142 receptor): 52.6 nM
- EC50 (mouse GPR142): 5.46 nM
SMILES: Cc1ncn(C)c1NC(=O)[C@@H]1CCC[C@H](N(C)C(=O)c2cccc(C(F)(F)F)c2)C1 (single isomer, unassigned; isomer 1) [Example 1, Cis-(chiral)-N-[3-[(3,5-Dimethylimidazol-4-yl)carbamoyl]cyclohexyl]-N-methyl-3-(trifluoromethyl)benzamide, isomer 1]
- ED50 in IPGTT (GPR142): 4.2 mpk

— patent publication US9861613B2, “GPR142 agonist compounds” (Eli Lilly and Company, priority 2014, dated 2018)
